According to US5288743A, “Indole carboxylate derivatives which inhibit leukotriene biosynthesis” (Abbott Laboratories, priority 1992, dated 1994):

How the values were obtained:
[1] = system: LTB4 biosynthesis in human whole blood; test: Inhibition of calcium ionophore A23187-induced LTB4 biosynthesis in human whole blood; format: cell-based; conditions: 0.5 h; human heparinized whole blood, A23187 50 μM, 30 minutes at 37° C., LTB4 by radioimmunoassay
Description: The assay using human heparinized whole blood was incubated for 30 minutes at 37° C. after adding 50 μM of ionophore A23187. The plasma layer was obtained by centrifugation and deproteinized by the addition of four volumes of methanol. The methanol extract was analyzed for LTB4 using a commercially available radioimmunoassay.

[2] = system: LTB4 biosynthesis in human PMNL; test: Inhibition of calcium ionophore A23187-induced LTB4 biosynthesis in human polymorphonuclear leukocytes (PMNL); format: cell-based; conditions: human PMNL (5×10^6 cells/250 μL), 15 min preincubation at 37° C., A23187 8.3 μM, 10 min, LTB4 by HPLC
Description: Inhibition of leukotriene biosynthesis was evaluated in assays, involving calcium ionophore-induced LTB4 biosynthesis expressed by human polymorphonuclear leukocytes (PMNL) or human whole blood. Human PMNL were isolated from heparinized (20 USP units/mL) venous blood using Ficoll-Hypaque Mono-Poly Resolving Medium. Human PMNL suspensions (5×10^6 cells/250 μL) were preincubated with test compounds or vehicle for 15 min at 37° C. followed by calcium ionophore A23187 challenge (final concentration of 8.3 μM) and the reaction terminated after 10 min by adding two volumes of methanol containing prostaglandin B2 as an internal recovery standard. The methanol extracts were analyzed for LTB4 content by HPLC.

leukotriene biosynthesis = test: Inhibition of leukotriene biosynthesis in vivo, rat peritoneal anaphylaxis model, oral administration; conditions: for percent inhibition of leukotriene biosynthesis: oral dose of 30 μmol/kg, gavage one hour prior to antigen challenge
Description: Inhibition of the biosynthesis of leukotrienes in vivo after oral administration of compound was determined using a rat peritoneal anaphylaxis model in a similar manner as that described by Young and coworkers (Young, P. R.; Dyer, R. D.; Carter, G. W. Fed. Proc., Fed. Am. Soc. Exp. Biol. 1985, 44, 1185). In this model rats were injected intraperitoneally (ip) with rabbit antibody to bovine serum albumin (BSA) and three hours later injected ip with BSA to induce an antigen-antibody response. Rats were sacrificed 15 minutes after this challenge and the peritoneal fluids were collected and analyzed for leukotriene levels. Test compounds were administered by gavage one hour prior to the antigen challenge. Percent inhibition values were determined by comparing the treatment group to the mean of the control group. […] Compounds 5, 8, and 9 inhibit>50% leukotriene biosynthesis with an oral dose of 30 μmol/kg.

| Structure (SMILES) | IC50 [1] [nM] | IC50 [2] [nM] | percent inhibition of leukotriene biosynthesis (leukotriene biosynthesis) [%] | ED50 (leukotriene biosynthesis; 1 h, po (gavage) one hour prior to antigen challenge, read-out: inhibits leukotriene biosynthesis, ED50) [mg/kg] |
| --- | --- | --- | --- | --- |
| CC(C)(C)Sc1c(CC(C)(C)C(=O)O)n(Cc2ccc(Cl)cc2)c2ccc(OCc3cscn3)cc12 [Example 9, 3-[1-(4-chlorobenzyl)-3-(1,1-dimethylethylthio)-5-(thiazol-4-ylmethoxy)indol-2-yl]-2,2-dimethylpropionic acid] | 40 | 4.4 | > 50 | – |
| Cc1cc(C)nc(COc2ccc3c(c2)c(SC(C)(C)C)c(CC(C)(C)C(=O)O)n3Cc2ccc(Cl)cc2)n1 [Example 7, 3-[1-(4-chlorobenzyl)-3-(1,1-dimethylethylthio)-5-(4,6-dimethylpyrimid-2-ylmethoxy)indol-2-yl]-2,2-dimethylpropionic acid] | 1600 | 30 | – | – |
| CC(C)(C)Sc1c(CC(C)(C)C(=O)O)n(Cc2ccc(Cl)cc2)c2ccc(Oc3ccccn3)cc12 [Example 5, 3-[1-(4-chlorobenzyl)-3-(1,1-dimethylethylthio)-5-(pyrid-2-yloxy)indol-2-yl]-2,2-dimethylpropionic acid] | 2470 | 15 | > 50 | – |
| CC(C)(C)Sc1c(CC(C)(C)C(=O)O)n(Cc2ccc(Cl)cc2)c2ccc(OCc3ccccn3)cc12 [Example 3, 3-[1-(4-chlorobenzyl)-3-(1,1-dimethylethylthio)-5-(pyrid-2-ylmethoxy)indol-2-yl]-2,2-dimethylpropionic acid] | 50 | < 50 | – | 0.1 |
| CC(C)(C)Sc1c(CC(C)(C)C(=O)O)n(Cc2ccc(Cl)cc2)c2ccc(OCc3ccc4ccccc4c3)cc12 [Example 4, 3-[1-(4-chlorobenzyl)-3-(1,1-dimethylethylthio)-5-(napth-2-ylmethoxy)indol-2-yl]-2,2-dimethylpropionic acid] | 4420 | 12 | – | – |
| CC(C)(C)Sc1c(CC(C)(C)C(=O)O)n(Cc2ccc(Cl)cc2)c2ccc(OCc3cccs3)cc12 [Example 10, 3-[1-(4-chlorobenzyl)-3-(1,1-dimethylethylthio)-5-(thien-2-ylmethoxy)indol-2-yl]-2,2-dimethylpropionic acid] | 1400 | 7 | – | – |

The next lines start with results.

| IC50 [1] [nM] | IC50 [2] [nM] | Structure (SMILES) | percent inhibition of leukotriene biosynthesis (leukotriene biosynthesis) [%] | ED50 (leukotriene biosynthesis; 1 h, po (gavage) one hour prior to antigen challenge, read-out: inhibits leukotriene biosynthesis, ED50) [mg/kg] |
| --- | --- | --- | --- | --- |
| 3200 | < 800 | CC(C)(C)Sc1c(CC(C)(C)C(=O)O)n(Cc2ccc(Cl)cc2)c2ccc(OCc3ccc(Cl)s3)cc12 [Example 6, 3-[1-(4-chlorobenzyl)-5-(5-chlorothien-2-ylmethoxy)-3-(1,1-dimethylethylthio)indol-2-yl]-2,2-dimethylpropionic acid] | – | – |
| 110 | 17 | CC(C)(C)Sc1c(CC(C)(C)C(=O)O)n(Cc2ccc(Cl)cc2)c2ccc(OCc3cccc(Cl)n3)cc12 [Example 8, 3-[1-(4-chlorobenzyl)-5-(6-chloropyrid-2-ylmethoxy)-3-(1,1-dimethylethylthio)indol-2-yl]-2,2-dimethylpropionic acid] | > 50 | – |
| 840 | < 100 | CC(C)(C)Sc1c(CC(C)(C)C(=O)O)n(Cc2ccc(Cl)cc2)c2ccc(OCc3ccncc3)cc12 [Example 2, 3-[1-(4-chlorobenzyl)-3-(1,1-dimethylethylthio)-5-(pyrid-4-ylmethoxy)-indol-2-yl]-2,2-dimethylpropionic acid] | – | – |
| 1090 | 17 | CC(C)(C)Sc1c(CC(C)(C)C(=O)O)n(Cc2ccc(Cl)cc2)c2ccc(OCc3cccnc3)cc12 [Example 1, 3-[1-(4-chlorobenzyl)-3-(1,1-dimethylethylthio)-5-(pyrid-3-ylmethoxy)-indol-2-yl]-2,2-dimethylpropionic acid] | – | – |
